The text below walks through data of the NIST ThermoML archive (doi:10.1021/je400884v).

Numbers after ± are expanded uncertainties.

The series in a line: an = ratio of the nth substance listed. To be noted: 101 kPa, Liquid, Pycnometric method.

One may read the mass density as mass per unit of volume. With `OCCCCO` [1,4-butanediol] + C[N+](C)(C)CCO.[Cl-], the mass density runs as follows: (293.15 K, a2 = 0.25) 1044.5 ± 1.7 kg/m3; (293.15 K, a2 = 0.33) 1052.4 ± 1.7 kg/m3; (303.15 K, a2 = 0.25) 1041.1 ± 1.7 kg/m3; (303.15 K, a2 = 0.33) 1049 ± 1.7 kg/m3; (313.15 K, a2 = 0.25) 1035.4 ± 1.7 kg/m3; (313.15 K, a2 = 0.33) 1043.2 ± 1.7 kg/m3. Also, the mass density was 1030.6 ± 1.7 kg/m3 (323.15 K, a2 = 0.25) and 1038.4 ± 1.7 kg/m3 (323.15 K, a2 = 0.33).

Consider `CC(O)C(C)O` (centres undefined) [2,3-butanediol] + C[N+](C)(C)CCO.[Cl-], for which the mass density is reported as 1035 ± 1.7 kg/m3 (293.15 K, a2 = 0.25); 1046.8 ± 1.7 kg/m3 (293.15 K, a2 = 0.33); 1030.9 ± 1.7 kg/m3 (303.15 K, a2 = 0.25); 1039 ± 1.7 kg/m3 (303.15 K, a2 = 0.33); 1026.5 ± 1.7 kg/m3 (313.15 K, a2 = 0.25); 1035.7 ± 1.7 kg/m3 (313.15 K, a2 = 0.33). Also, the mass density is recorded as 1019.7 ± 1.7 kg/m3 (323.15 K, a2 = 0.25) and 1030 ± 1.7 kg/m3 (323.15 K, a2 = 0.33).

Turning to `C[N+](C)(C)CCO.[Cl-]` [choline chloride] + CC(O)CO, the mass density by setting is: (293.15 K, a1 = 0.25) 1066.3 ± 1.7 kg/m3; (293.15 K, a1 = 0.33) 1066.6 ± 1.7 kg/m3; (303.15 K, a1 = 0.25) 1060.2 ± 1.7 kg/m3; (303.15 K, a1 = 0.33) 1059.9 ± 1.7 kg/m3; (313.15 K, a1 = 0.25) 1054.1 ± 1.7 kg/m3; (313.15 K, a1 = 0.33) 1053.3 ± 1.7 kg/m3. The mass density runs as follows: (323.15 K, a1 = 0.25) 1048 ± 1.7 kg/m3; (323.15 K, a1 = 0.33) 1046.7 ± 1.7 kg/m3.
